These results are taken from ChEMBL document CHEMBL1201862, “PubChem BioAssay data set” (2004).

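Compound exposure: 48 hours, 5 concentrations, 96-well plates. GI50: concentration for 50% inhibition of growth.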 The source made the active and inactive calls. Cut-off read from the data, not from the text of the source: active = GI50 up to about 1.1 µM and inactive = higher.

Among the test systems are SF-268; ACHN; LOX IMVI; MCF7; RXF 393; COLO 205; NCI/ADR-RES; MOLT-4; Hs-578T; OVCAR-5; T47D; KM-20L2; SF-295; MDA-N; HCC 2998; HOP-92; BT-549; SK-MEL-2; K562; HL-60.
Experiment in all cases: inhibition of tumour cell growth, NCI panel, 48 h

On to `CCCC(=O)OC1C(C(O)CO)OC2OC(C)(C)OC21` (stereo not given), for which the GI50 with SF-268, in the assay with ACHN, in the assay with LOX IMVI, in the assay with MCF7, in the assay with RXF 393 and in the assay with COLO 205 was > 100 µM (inactive) each time. Moreover, the GI50 in the assay with NCI/ADR-RES, in the assay on MOLT-4, with Hs-578T, in the assay with OVCAR-5, in the assay on T47D and with KM-20L2 was > 100 µM (inactive) throughout. The GI50 in the assay with SF-295, with MDA-N, in the assay on HCC 2998, in the assay on HOP-92, in the assay with BT-549 and in the assay with SK-MEL-2 was > 100 µM (inactive) in each case.
For `CC12CC(Sc3ccccc3N1)c1ccccc1O2` (stereo not given), the GI50 was 16.1 µM (inactive) with SF-268; 16.9 µM (inactive) with ACHN; 13.7 µM (inactive) in the assay with LOX IMVI; 14.3 µM (inactive) with K562; 15.9 µM (inactive) in the assay on RXF 393; 16.2 µM (inactive) in the assay with COLO 205. Also, the GI50 in the assay with MOLT-4 is 16.6 µM (inactive); with OVCAR-5, 19 µM (inactive); in the assay with KM-20L2, 18.4 µM (inactive); in the assay with SF-295 it was 16 µM (inactive); with HCC 2998, 17.1 µM (inactive); with HL-60, 11 µM (inactive). Further, the values for the GI50 in the assay with HOP-92 and in the assay with SK-MEL-2 were 18.7 µM (inactive) and 12.8 µM (inactive), respectively.
Turning to `CC[P+](C)(C)CC`, the GI50 in the assay on SF-268, in the assay on ACHN, in the assay on LOX IMVI, with K562, in the assay with RXF 393 and in the assay on COLO 205 was > 100 µM (inactive) throughout. In addition, the GI50 with MOLT-4, in the assay with OVCAR-5, in the assay on KM-20L2, in the assay on SF-295, with HCC 2998 and in the assay on HL-60 was > 100 µM (inactive) in each case. In addition, the figures for the GI50 in the assay on HOP-92 and in the assay on SK-MEL-2 were > 100 µM (inactive) and 82.8 µM (inactive), respectively.
As for `C=C1CC2OC2(C(=O)O[C@H]2CCC3[C@@H]4CCC5=CC(=O)CC[C@]5(C)C4CC[C@@]32C)C1=O` (stereo not given in full), the GI50 is 8.41 µM (inactive) in the assay on SF-268; 8.09 µM (inactive) in the assay on ACHN; 7.94 µM (inactive) with LOX IMVI; 1.78 µM (inactive) with K562; 4.43 µM (inactive) in the assay on RXF 393; 4.1 µM (inactive) in the assay on COLO 205. Further, the GI50 in the assay with MOLT-4 was 1.49 µM (inactive); in the assay on Hs-578T, 16.8 µM (inactive); in the assay with OVCAR-5 it was 19.6 µM (inactive); in the assay on T47D, 3.3 µM (inactive); in the assay on KM-20L2 it was 7.57 µM (inactive); with SF-295, 19.1 µM (inactive). Moreover, the GI50 in the assay with HCC 2998 was 31.6 µM (inactive); in the assay with HL-60, 0.83 µM (active); in the assay on HOP-92, 9.75 µM (inactive); with BT-549, 15.3 µM (inactive); in the assay on SK-MEL-2, 6.07 µM (inactive).
Regarding `C[C@H](NC(=O)n1c2ccccc2c2ccccc21)C(=O)O`, the GI50 in the assay on SF-268, with ACHN, with LOX IMVI, in the assay on K562, in the assay on RXF 393 and in the assay on COLO 205 was > 100 µM (inactive) throughout. Besides, the GI50 in the assay with MOLT-4, in the assay on OVCAR-5, in the assay with KM-20L2, with SF-295, in the assay with HCC 2998 and in the assay on HL-60 was > 100 µM (inactive) throughout. Further, the GI50 in the assay on HOP-92 and in the assay on SK-MEL-2 was > 100 µM (inactive) throughout.
Consider `O=C1C=CC(=O)c2c1c1c(c3c2C2c4ccccc4C3c3ccccc32)C2c3ccccc3C1c1ccccc12`, for which the GI50 in the assay on SF-268 was 7.64 µM (inactive); with ACHN, 1.73 µM (inactive); in the assay with LOX IMVI, 1.64 µM (inactive); in the assay with K562, 3.69 µM (inactive); in the assay with MCF7, 1.27 µM (inactive); in the assay with RXF 393 it was 1.59 µM (inactive). The GI50 in the assay with COLO 205 is 1.5 µM (inactive); with NCI/ADR-RES it was 5.04 µM (inactive); with MOLT-4, 0.836 µM (active); in the assay with Hs-578T it was 4.29 µM (inactive); in the assay with OVCAR-5 it was 6.55 µM (inactive); in the assay on T47D, 1.41 µM (inactive). For the same compound, the GI50 was 4.46 µM (inactive) in the assay on KM-20L2; 14.9 µM (inactive) in the assay with SF-295; 1.55 µM (inactive) in the assay on MDA-N; 6.92 µM (inactive) in the assay with HCC 2998; 1.54 µM (inactive) in the assay on HL-60; 1.08 µM (active) with HOP-92. Also, the values for the GI50 with BT-549 and in the assay with SK-MEL-2 were 3.26 µM (inactive) and 1.89 µM (inactive), respectively.
Take `O=C(/C=C\c1ccc(Cl)c(Cl)c1)c1ccc(Cl)cc1Cl`: the GI50 is 21.6 µM (inactive) in the assay with SF-268; 17.3 µM (inactive) in the assay with ACHN; 5.74 µM (inactive) in the assay with LOX IMVI; 6.11 µM (inactive) in the assay with K562; 16.1 µM (inactive) with RXF 393; > 10 µM (inactive) in the assay with COLO 205. The GI50 was 2.99 µM (inactive) with MOLT-4; > 10 µM (inactive) in the assay on OVCAR-5; 2.69 µM (inactive) in the assay on KM-20L2; 18.6 µM (inactive) in the assay with SF-295; 16.7 µM (inactive) with HCC 2998; 4.73 µM (inactive) in the assay with HL-60. In addition, the GI50 with HOP-92 is > 10 µM (inactive); in the assay on SK-MEL-2, 19.7 µM (inactive).
Turning to `O=C(O)[C@@H](NS(=O)(=O)c1ccc([N+](=O)[O-])cc1)c1ccccc1`, the GI50 in the assay on SF-268, in the assay with ACHN, in the assay on LOX IMVI, in the assay on K562, in the assay on RXF 393 and with COLO 205 was > 100 µM (inactive) each time. Moreover, the GI50 in the assay on MOLT-4, in the assay on OVCAR-5, in the assay with KM-20L2, with SF-295, with HCC 2998 and with HL-60 was > 100 µM (inactive) throughout. For the same compound, the GI50 with HOP-92 and in the assay with SK-MEL-2 was > 100 µM (inactive) in each case.
